What all share (assay type): functional
One experiment deals with KB. Nature of the experiment: Cytotoxicity against human KB cells. To be noted: read-out: ED50 (the source's name).
Experiment [1] concerns P388. As to the kind of experiment: Cytotoxicity against mouse P388 cells. As to conditions: read-out: ED50 (the source's name).
For experiment [2], the system named is P388. As to the kind of experiment: In vivo antitumor activity against mouse P388 cells at 19.6 mg/kg relative to control.
In experiment [3] the test system is P388. As to the kind of experiment: In vivo antitumor activity against mouse P388 cells at 9.83 mg/kg relative to control.
Experiment [4] deals with P388. Nature of the experiment: In vivo antitumor activity against mouse P388 cells at 4.92 mg/kg relative to control.
For experiment [5], the system named is P388. Nature of the experiment: In vivo antitumor activity against mouse P388 cells at 2.46 mg/kg relative to control.
Experiment [6] relates to P388. As to the kind of experiment: In vivo antitumor activity against mouse P388 cells at 7.5 mg/kg relative to control.
Experiment [7] deals with P388. Nature of the experiment: In vivo antitumor activity against mouse P388 cells at 3.8 mg/kg relative to control.
For experiment [8], the system named is P388. As to the kind of experiment: In vivo antitumor activity against mouse P388 cells at 1.9 mg/kg relative to control.
Experiment [9] deals with P388. Nature of the experiment: In vivo antitumor activity against mouse P388 cells at 0.9 mg/kg relative to control.
Experiment [10] deals with P388. Nature of the experiment: In vivo antitumor activity against mouse P388 cells at 1 mg/kg relative to control.
The subject of experiment [11] is P388. Nature of the experiment: In vivo antitumor activity against mouse P388 cells at 0.5 mg/kg relative to control.
Experiment [12] deals with P388. Nature of the experiment: In vivo antitumor activity against mouse P388 cells at 0.25 mg/kg relative to control.
Experiment [13] relates to P388. As to the kind of experiment: In vivo antitumor activity against mouse P388 cells at 5 mg/kg relative to control.
Experiment [14] relates to P388. Nature of the experiment: In vivo antitumor activity against mouse P388 cells at 2.5 mg/kg relative to control.
Experiment [15] relates to P388. As to the kind of experiment: In vivo antitumor activity against mouse P388 cells at 1.25 mg/kg relative to control.

This note sets out measurements from ChEMBL document CHEMBL1145655, “Plant anticancer agents XXV. Constituents of Soulamea soulameoides” (1983).

Values after ≈ are worked out from the molar mass of the structure shown.

Turning to `COc1cc([C@H]2Oc3c(OC)cc4ccc(=O)oc4c3O[C@@H]2CO)ccc1O` [CLEOMISCOSIN A], the values for the EC50 in the experiment on KB and in the experiment on P388 [1] were 4.9 µg/mL (≈ 12.7 µM) and 2.8 µg/mL (≈ 7.25 µM), respectively.

In the case of `COC1=C(C)[C@@H]2CC(=O)O[C@@H]3C[C@H]4C(C)=C[C@H](O)C(=O)[C@]4(C)[C@@H](C1=O)[C@@]32C` [PICRASIN B], the EC50 with KB and in the experiment on P388 [1] was above 100 µg/mL each time. In addition, the T/C in the experiment on P388 [2] worked out at 107%; in the experiment on P388 [3], 107%; in the experiment on P388 [4] it was 102%; in the experiment on P388 [5], 107%.

`CC(=O)O[C@H]1C(=O)O[C@@H]2C[C@H]3C(C)=CC(=O)[C@@H](O)[C@]3(C)[C@H]3[C@]4(O)OC[C@]32[C@@H]1[C@@H](C)[C@H]4O` [HOLACANTHONE]: the T/C in the experiment with P388 [6] was found to be 136%; with P388 [7], 154%; in the experiment with P388 [8] it was 134%; with P388 [9] it was 127%.

For the compound `COC(=O)[C@]12OC[C@]34[C@H]([C@@H](O)[C@@H]1O)[C@@]1(C)[C@H](O)C(=O)C=C(C)[C@@H]1C[C@H]3OC(=O)[C@H](OC(=O)CC(C)C)[C@@H]24` [ISOBRUCEIN A], the EC50 in the experiment on KB turned out to be 0.003 µg/mL (≈ 0.00574 µM); in the experiment with P388 [1], 0.001 µg/mL (≈ 0.00191 µM). The T/C in the experiment with P388 [10] is listed as 155%; in the experiment on P388 [11], 145%; in the experiment with P388 [12], 138%.

In the case of `O=c1ccc2nccc3c4c(O)cccc4n1c23`, the EC50 was 2.1 µg/mL (≈ 8.89 µM) with KB and 2.3 µg/mL (≈ 9.74 µM) in the experiment with P388 [1]. Also, the T/C in the experiment on P388 [13] stood at 102%; in the experiment with P388 [14] it was 107%; in the experiment on P388 [15], 108%.

Regarding `CC1=CC(=O)[C@@H](O)[C@]2(C)[C@H]3[C@]4(O)OC[C@]35[C@H]([C@@H](C)[C@H]4O)[C@@H](O)C(=O)O[C@@H]5C[C@@H]12` [GLAUCARUBOLONE], the EC50 in the experiment with KB was determined as 0.11 µg/mL (≈ 0.279 µM); in the experiment on P388 [1], 0.01 µg/mL (≈ 0.0254 µM). The T/C in the experiment on P388 [13] was 132%.
